We go through twelve molecules from patent US9345740B2, “IAP antagonists” (BRISTOL-MYERS SQUIBB COMPANY, priority 2012, dated 2016).

As a reminder, the pIC50 is the IC50 on a negative log10 scale, so that one unit is a factor of ten.

What all share (format): binding
In test [1] the target is XIAP BIR2-3 (His-BIR2-3 (125-356, C202A/C213G, XIAP)) (Homo sapiens (Human), UniProt P98170, C202A/C213G).
For test [2], the target named is XIAP BIR3 (His-BIR3 (241-356, XIAP)) (Homo sapiens (Human), UniProt P98170).
Chain of XIAP BIR3 (His-BIR3 (241-356, XIAP)) (P98170 whole entry, looked up): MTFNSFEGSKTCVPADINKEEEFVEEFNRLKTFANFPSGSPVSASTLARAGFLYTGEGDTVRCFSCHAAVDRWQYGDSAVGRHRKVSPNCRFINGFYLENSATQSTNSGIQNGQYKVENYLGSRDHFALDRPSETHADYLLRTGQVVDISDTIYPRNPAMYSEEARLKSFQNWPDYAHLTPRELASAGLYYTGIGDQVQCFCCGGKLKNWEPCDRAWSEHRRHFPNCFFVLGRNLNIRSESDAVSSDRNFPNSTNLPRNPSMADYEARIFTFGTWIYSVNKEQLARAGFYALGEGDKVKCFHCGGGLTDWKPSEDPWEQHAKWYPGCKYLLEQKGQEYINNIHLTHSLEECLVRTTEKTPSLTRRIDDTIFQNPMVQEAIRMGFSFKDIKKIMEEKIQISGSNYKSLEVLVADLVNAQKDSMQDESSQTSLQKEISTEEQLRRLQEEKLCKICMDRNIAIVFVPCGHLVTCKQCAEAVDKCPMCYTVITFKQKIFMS
The target of test [3] is XIAP BIR3 (N-His-Tb-BIR3(241-356, XIAP)) (Homo sapiens (Human), UniProt P98170).
Chain of XIAP BIR3 (N-His-Tb-BIR3(241-356, XIAP)) (P98170 whole entry, looked up): as above
Test [4] concerns the target XIAP BIR2 (His-BIR2 (124-240/C202A/C213G)) (Homo sapiens (Human), UniProt P98170, C202A/C213G). The experiment in a line: XIAP-BIR2/SMAC Peptide AlphaScreen Assay. As to conditions: footnote *: XIAP BIR2 alpha screen (printed in the BIR2-3 column). As for the experimental part:
C. XIAP-BIR2/SMAC Peptide AlphaScreen Assay
Assays were performed in white, flat-bottom, 384-well ProxiPlates (Perkin Elmer). The final assay volume was 10 μL prepared from additions of His-BIR2 (124-240/C202A/C213G), Biotinylated SMAC peptide, and test compounds in assay buffer consisting of 25 mM Hepes, 100 mM NaCl, 0.1% BSA, and 5 mM CaCl2. The reaction was incubated at room temperature for 60 minutes. After 60 minutes, 2.5 μL of Alphascreen detection reagent (Perkin Elmer) was added to the reaction mixture and incubated at room temperature in the dark for 120 minutes. The Alphascreen signal generated by the reaction was detected on the Envision Plate Reader Inhibition data were calculated from an Alphascreen signal generated by the no protein control reactions for 100% inhibition and vehicle-only reactions for 0% inhibition. The final concentration of reagents in the assay was 50 nM His-BIR2 (124-240/C202A/C213G), 50 nM.
Biotinylated SMAC peptide, 4 μg/mL Alphascreen detection reagents, and 0.5% DMSO. Dose response curves were generated to determine the concentration required for inhibiting 50% of the activity (IC50). Compounds were dissolved at 10 mM in dimethylsulfoxide (DMSO) and evaluated at eleven concentrations. IC50 values were derived by non-linear regression analysis.

Structures are written as SMILES. pIC50: −log10 of the molar value.

Chain of XIAP BIR2-3 (His-BIR2-3 (125-356, C202A/C213G, XIAP)) (P98170 whole entry C202A/C213G, looked up): as the sequence (P98170 whole entry, looked up) above, with C202A, C213G counted along it
Chain of XIAP BIR2 (His-BIR2 (124-240/C202A/C213G)) (P98170 whole entry C202A/C213G, looked up): as the sequence (P98170 whole entry, looked up) above, with C202A, C213G counted along it

Regarding `CN[C@@H](C)C(=O)NC(Cc1ccc(NC(=O)c2ccc(C(=O)N[C@H]3C[C@@H](C(=O)NC4CCCc5ccccc54)N(C(=O)[C@@H](NC(=O)[C@H](C)NC)C(C)(C)C)C3)cc2)cc1)C(=O)N1C[Si](C)(C)C[C@H]1C(=O)NC1CCCc2ccccc21` (stereo partly drawn) [Example 1], the results for the negative-log IC50 (pIC50) in test [1] and in test [2] were 8.40 and 7.92, respectively.

As for `CN[C@@H](C)C(=O)N[C@@H](Cc1ccc(NC(=O)N[C@H]2C[C@@H](C(=O)N[C@@H]3CCCc4ccccc43)N(C(=O)[C@@H](NC(=O)[C@H](C)NC)C(C)(C)C)C2)cc1)C(=O)N1C[Si](C)(C)C[C@H]1C(=O)N[C@@H]1CCCc2ccccc21` [Example 2, (R)-1-((S)-3-(4-(3-((3S,5S)-1-((S)-3,3-Dimethyl-2-((S)-2-(methylamino)propanamido)butanoyl)-5-(((R)-1,2,3,4-tetrahydronaphthalen-1-yl)carbamoyl)pyrrolidin-3-yl)ureido)phenyl)-2-((S)-2-(methylamino)propanamido)propanoyl)-3,3-dimethyl-N—((R)-1,2,3,4-tetrahydronaphthalen-1-yl)-1,3-azasilolidine-5-carboxamide], the values for the pIC50 in test [1] and in test [2] were 8.22 and 7.80, respectively.

Take `CN[C@@H](C)C(=O)NC(Cc1ccc(NC(=O)c2ccc(CO[C@H]3C[C@@H](C(=O)NC4CCCc5ccccc54)N(C(=O)[C@@H](NC(=O)[C@H](C)NC)C(C)(C)C)C3)cc2)cc1)C(=O)N1C[Si](C)(C)C[C@H]1C(=O)NC1CCCc2ccccc21` (stereo partly drawn) [Example 3, (R)-1-((S)-3-(4-(4-((((3S,5S)-1-((S)-3,3-Dimethyl-2-(S)-2-(methylamino)propanamido)butanoyl)-5-(((R)-1,2,3,4-tetrahydronaphthalen-1-yl)carbamoyl)pyrrolidin-3-yl)oxy)methyl)benzamido)phenyl)-(2-((S)-2-(methylamino)propanamido)propanoyl)-3,3-dimethyl-N—((R)-1,2,3,4-tetrahydronaphthalen-1-yl)-1,3-azasilolidine-5-carboxamide]: the pIC50 is 8.30 in test [1] and 7.85 in test [2].

Turning to `CN[C@@H](C)C(=O)NC(Cc1ccc(C(=O)Nc2ccc(C(=O)N[C@H]3C[C@@H](C(=O)NC4CCCc5ccccc54)N(C(=O)[C@@H](NC(=O)[C@H](C)NC)C(C)(C)C)C3)cc2)cc1)C(=O)N1C[Si](C)(C)C[C@H]1C(=O)NC1CCCc2ccccc21` (stereo partly drawn) [Example 4], the negative-log IC50 (pIC50) was 8.40 in test [1] and 7.85 in test [2].

Consider `CN[C@@H](C)C(=O)N[C@@H](Cc1ccc(C#Cc2ccc(C(=O)N[C@H]3C[C@@H](C(=O)N[C@@H]4CCCc5ccccc54)N(C(=O)[C@@H](NC(=O)[C@H](C)NC)C(C)(C)C)C3)cc2)cc1)C(=O)N1C[Si](C)(C)C[C@H]1C(=O)N[C@@H]1CCCc2ccccc21` [Example 5, (R)-1-((S)-3-(4-((4-(((3S,5S)-1-((S)-3,3-Dimethyl-2-((S)-2-(methylamino)propanamido)butanoyl)-5-(((R)-1,2,3,4-tetrahydronaphthalen-1-yl)carbamoyl)pyrrolidin-3-yl)carbamoyl)phenyl)ethynyl)phenyl)-2-((S)-2-(methylamino)propanamido)propanoyl)-3,3-dimethyl-N—((R)-1,2,3,4-tetrahydronaphthalen-1-yl)-1,3-azasilolidine-5-carboxamide], for which the figures for the pIC50 in test [1] and in test [2] were 6.47 and 6.99, respectively.

Regarding `CN[C@@H](C)C(=O)N[C@@H](Cc1ccc(CCc2ccc(C(=O)N[C@H]3C[C@@H](C(=O)N[C@@H]4CCCc5ccccc54)N(C(=O)[C@@H](NC(=O)[C@H](C)NC)C(C)(C)C)C3)cc2)cc1)C(=O)N1C[Si](C)(C)C[C@H]1C(=O)N[C@@H]1CCCc2ccccc21` [Example 6, (R)-1-((S)-3-(4-(4-(((3S,5S)-1-((S)-3,3-Dimethyl-2-((S)-2-(methylamino)propanamido)butanoyl)-5-(((R)-1,2,3,4-tetrahydronaphthalen-1-yl)carbamoyl)pyrrolidin-3-yl)carbamoyl)phenethyl)phenyl)-2-((S)-2-(methylamino)propanamido)propanoyl)-3,3-dimethyl-N—((R)-1,2,3,4-tetrahydronaphthalen-1-yl)-1,3-azasilolidine-5-carboxamide], the negative logarithm of the IC50 (pIC50) in test [1] is 6.69; in test [2], 7.08.

In the case of `CN[C@@H](C)C(=O)NC(Cc1ccc(-c2ccc(C(=O)NC3C[C@@H](C(=O)NC4CCCc5ccccc54)N(C(=O)[C@@H](NC(=O)[C@H](C)NC)C(C)(C)C)C3)cc2)cc1)C(=O)N1C[Si](C)(C)C[C@H]1C(=O)NC1CCCc2ccccc21` (stereo partly drawn) [Example 7], the results for the pIC50 in test [1] and in test [2] were 6.51 and 7.03, respectively.

Consider `CN[C@@H](C)C(=O)N[C@@H](Cc1ccc(C#CC(=O)N[C@H]2C[C@@H](C(=O)N[C@@H]3CCCc4ccccc43)N(C(=O)[C@@H](NC(=O)[C@H](C)NC)C(C)(C)C)C2)cc1)C(=O)N1C[Si](C)(C)C[C@H]1C(=O)N[C@@H]1CCCc2ccccc21` [Example 8, (R)-1-((S)-3-(4-(3-(((3S,5S)-1-((S)-3,3-Dimethyl-2-((S)-2-(methylamino)propanamido)butanoyl)-5-(((R)-1,2,3,4-tetrahydronaphthalen-1-yl)carbamoyl)pyrrolidin-3-yl)amino)-3-oxoprop-1-yn-1-yl)phenyl)-2-((S)-2-(methylamino)propanamido)propanoyl)-3,3-dimethyl-N—((R)-1,2,3,4-tetrahydronaphthalen-1-yl)-1,3-azasilolidine-5-carboxamide], for which the negative-log IC50 (pIC50) is 8.40 in test [1] and 8.52 in test [2].

Take `CN[C@@H](C)C(=O)N[C@H](C(=O)N1C[C@@H](NC(=O)c2ccc(CN(C(=O)[C@@H]3C[Si](C)(C)CN3C(=O)[C@@H](NC(=O)[C@H](C)NC)C(C)(C)C)[C@H](C)c3ccccc3F)cc2)C[C@H]1C(=O)N[C@@H]1CCCc2ccccc21)C(C)(C)C` [Example 9, (R)-1-((S)-3,3-Dimethyl-2-((S)-2-(methylamino)propanamido)butanoyl)-N-(4-(((3S,5S)-1-((S)-3,3-dimethyl-2-((S)-2-(methylamino)propanamido)butanoyl)-5-(((R)-1,2,3,4-tetrahydronaphthalen-1-yl)carbamoyl)pyrrolidin-3-yl)carbamoyl)benzyl)-N—((R)-1-(2-fluorophenyl)ethyl)-3,3-dimethyl-1,3-azasilolidine-5-carboxamide]: the negative logarithm of the IC50 (pIC50) in test [1] is 8.05; in test [2], 7.28.

For `CN[C@@H](C)C(=O)N[C@@H](Cc1ccc(C(=O)N[C@H]2C[C@@H](C(=O)N[C@@H]3CCCc4ccccc43)N(C(=O)[C@@H](NC(=O)[C@H](C)NC)C(C)(C)C)C2)cc1)C(=O)N1C[Si](C)(C)C[C@H]1C(=O)N[C@@H]1CCCc2ccccc21` [Example 10, (R)-1-((S)-3-(4-(((3S,5S)-1-((S)-3,3-dimethyl-2-((S)-2-(methylamino)propanamido)butanoyl)-5-(((R)-1,2,3,4-tetrahydronaphthalen-1-yl)carbamoyl)pyrrolidin-3-yl)carbamoyl)phenyl)-2-((S)-2-(methylamino)propanamido)propanoyl)-3,3-dimethyl-N-((R)-1,2,3,4-tetrahydronaphthalen-1-yl)-1,3-azasilolidine-5-carboxamide], the pIC50 is 8.30 in test [1] and 8.10 in test [2].

With `CC[C@H](NC)C(=O)N[C@@H](Cc1ccc(NC(=O)c2ccc(C(=O)N[C@H]3C[C@@H](C(=O)N[C@@H]4CCCc5ccccc54)N(C(=O)[C@@H](NC(=O)[C@H](C)NC)C(C)(C)C)C3)cc2)cc1)C(=O)N1C[Si](C)(C)C[C@H]1C(=O)N[C@@H]1CCCc2ccccc21` [Example 11, N1-((3S,5S)-1-((S)-3,3-dimethyl-2-((S)-2-(methylamino)propanamido)butanoyl)-5-(((R)-1,2,3,4-tetrahydronaphthalen-1-yl)carbamoyl)pyrrolidin-3-yl)-N4-(4-((S)-3-((R)-3,3-dimethyl-5-(((R)-1,2,3,4-tetrahydronaphthalen-1-yl)carbamoyl)-1,3-azasilolidin-1-yl)-2-((S)-2-(methylamino)butanamido)-3-oxopropyl)phenyl)terephthalamide], the figures for the pIC50 in test [1] and in test [2] were 8.22 and 7.52, respectively.

For the molecule `CN[C@@H](C)C(=O)N[C@H](C(=O)N1C[C@@H](NC(=O)c2ccc(CN(C(=O)[C@@H]3C[Si](C)(C)CN3C(=O)[C@@H](NC(=O)[C@H](C)NC)C(C)(C)C)[C@H](C)c3cccc(F)c3F)cc2)C[C@H]1C(=O)N[C@@H]1CCCc2ccccc21)C(C)(C)C` [Example 12, (R)-N-((R)-1-(2,3-Difluorophenyl)ethyl)-1-((S)-3,3-dimethyl-2-((S)-2-(methylamino)propanamido)butanoyl)-N-(4-(((3S,5S)-1-((S)-3,3-dimethyl-2-((S)-2-(methylamino)propanamido)butanoyl)-5-(((R)-1,2,3,4-tetrahydronaphthalen-1-yl)carbamoyl)pyrrolidin-3-yl)carbamoyl)benzyl)-3,3-dimethyl-1,3-azasilolidine-5-carboxamide], the pIC50 in test [3] was 6.77; in test [4] it was 6.23.
